Reference: patent publication US7973219B2, “Method for producing transgenic plants resistant to weed control compounds which disrupt the porphyrin pathways of plants” (Sumitomo Chemical Company, Limited, priority 1998, dated 2011)

Legend:
[1] = tested on: tobacco introduced with the gene encoding the variant barley ferrochelatase; assay: Leaf piece chlorophyll test, tobacco with gene encoding variant barley ferrochelatase; assay type: in vivo; settings: Table 12; for Resistant level to test compound: same manner as Example 6 (0.3 ppm), treated vs untreated leaf pieces; for Total chlorophyll content treated-leaf: same manner as Example 6 (0.3 ppm, 7 days in light)
Excerpt: The tobacco leaves into which bchH gene was introduced and control recombinant tobacco leaves obtained in Example 5 were collected and each leaf was divided into the right and left equivalent pieces along the main vein, respectively. To one piece was applied an aqueous solution containing 0.3 ppm PPO inhibitory-type herbicidal compound of Structure 8, while, to the other piece was not applied the compound. These leaf pieces were placed on MS medium containing 0.8% agar and allowed to stand at room temperature for 7 days in light place. Then, each leaf piece was ground with pestle and mortar in 5 ml of 80% aqueous acetone solution to extract chlorophyll. The extract liquid was diluted with 80% aqueous acetone solution and the absorbance was measured at 750 nm, 663 nm and 645 nm to calculate total chlorophyll content according to the method described by Macknney G., J. Biol. Chem. (1941) 140, p 315. The results obtained from 4 clones of tobacco into which bchH gene was introduced (BCH1 to 4) and control recombinant tobacco is shown in Table 4. In the table, the resistant level to the herbicidal compound was represented by percentages of the total chlorophyll content of leaf pieces treated with herbicidal compound to that of untreated leaf pieces.
Leaf pieces of tobacco cultured sterilely were infected with said Agrobacterium strain and, according to the same manner as in Example 5, tobacco into which the gene encoding the variant barley ferrochelatase was introduced was obtained.
The level of resistance to the PPO inhibitory-type herbicidal compound represented by Structure 8 was confirmed quantitatively by testing tobacco into which the gene encoding the variant barley ferrochelatase prepared in Example 21 was introduced according to the same manner as in Example 6. The results obtained from 4 clones (HVF 1-4) of tobacco introduced with the gene encoding the variant barley ferrochelatase and control recombinant tobacco are shown in table 12. In the table, the resistant levels to the herbicidal compound are represented by percentages of the total chlorophyll content of leaf pieces treated with herbicidal compound to that of untreated leaf pieces.

[2] = tested on: E. coli BT3/pACYCSP+pTVCRP strain; assay: Growth of E. coli BT3/pACYCSP+pTVCRP (variant Chlamydomonas reinhardtii PPO) with herbicidal compound; assay type: cell-based, Escherichia coli; settings: 18 hours culture, Table 9
Excerpt: (§1) According to the description of Gibson, L. C. D. et al., Proc. Natl. Acad. Sci. USA, 92; p 1941 (1995), the DNA fragment containing bchH gene prepared in Example 1 was digested with the restriction enzymes NdeI and BglII. The resultant DNA fragment was inserted between NdeI restriction site and BamHI restriction site of expression vector pET11a (manufactured by Stratagene) to obtain plasmid pETBCH (FIG. 1). This plasmid pETBCH was introduced into E. coli BL21(DE3) strain competent cells (manufactured by Stratagene) according to the manual attached to the competent cells to obtain E. coli BL21(DE3)/pETBCH strain. The strain was inoculated into 1.5 ml LB liquid culture medium (1% tryptone, 0.5% yeast extract, 0.5% NaCl) containing 100 μg/ml ampicillin in a tube (14×10 mm), and the tube was covered with aluminum foil (hereinafter referred to as dark conditions), cultured with shaking at 37° C. under light of fluorescent lamp (about 8000 lux). When the absorbance at 600 nm of the liquid culture medium became about 0.6, isopropyl β-D-thiogalactopyranoside (IPTG) was added to the liquid culture medium so that the final concentration was 0.4 mM, and the culture was continued for about additional 20 hours. […] In contrast to this, when E. coli BL21(DE3)/pETBCH strain was cultured according to the same manner (with IPTG) except that the tube was not covered with aluminum foil (hereinafter referred to as light conditions), E. coli grew and turned red as above.
Plasmids pTVCRP and pTV118N prepared in Example 16 were introduced into E. coli BT3/pACYCSP strain prepared in Example 3 respectively according to the method described in Hanahan, D. J., Mol. Biol., 166; p 557 (1983). E. coli BT3/pACYCSP+pTVCRP strain bearing plasmids pACYCSP and pTVCRP, and E. coli BT3/pACYCSP+pTV118N strain bearing plasmids pACYCSP and pTV118N were obtained by culturing the above strains in YPT medium containing 100 μg/ml ampicillin, 15 μg/ml chloramphenicol and 10 μg/ml kanamycin.
(§2) These E. coli strains were inoculated into YPT medium containing 10 or 1 ppm of the PPO inhibitory-type herbicidal compound represented by Structure 8, 100 μg/ml ampicillin. 15 μg/ml chloramphenicol, 10 μg/ml kanamycin, 10 μg/ml hemin and 50 μg/ml aminolevulinic acid, cultured under dark conditions or light conditions in the same manner as in Example 2. Then, 18 hours after initiation of culture, the absorbance of liquid culture medium was measured at 600 nm. By taking the absorbance of the medium containing no herbicidal compound as 1, the relative value of the absorbance of the medium containing the herbicidal compound was calculated.

[3] = tested on: E. coli BT3/pACYCSP+pHEMF strain; assay: Growth of E. coli BT3/pACYCSP+pHEMF (E. coli hemF) with herbicidal compound; assay type: cell-based, Escherichia coli; settings: 18 hours culture, Table 14
Excerpt: as §1
The DNA fragment containing hemF gene amplified by the method described in Example 26 was digested with restriction enzymes FbaI and PstI, and inserted between BamHI restriction site and PstI restriction site of commercially available plasmid […] (manufactured by Takara Shuzo Co., Ltd.) to construct plasmid pHEMF (FIG. 16).
The plasmid pHEMF and pTV118N were introduced into E. coli BT3/pACYCSP strain prepared in Example 3 respectively according to the method described in Hanahan, D. J., Mol. Biol., 166; p 557 (1983). […]
as §2, with “μg/ml ampicillin,” for “μg/ml ampicillin.”, “conditions according to” for “conditions in”, “medium without the” for “medium containing no”, “as I,” for “as 1,”

C#CCOc1cc(N2C(=O)C3=C(CCCC3)C2=O)c(F)cc1Cl [Structure 8]
Resistant level to test compound ([1]; clone HVF-1): 106% | Total chlorophyll content treated-leaf ([1]; clone HVF-1): 0.930 mg/g-fresh weight | Resistant level to test compound ([1]; clone HVF-2): 102% | Total chlorophyll content treated-leaf ([1]; clone HVF-2): 1.16 mg/g-fresh weight | Resistant level to test compound ([1]; clone HVF-3): 98.1% | Total chlorophyll content treated-leaf ([1]; clone HVF-3): 1.04 mg/g-fresh weight | Resistant level to test compound ([1]; clone HVF-4): 95.9% | Total chlorophyll content treated-leaf ([1]; clone HVF-4): 1.42 mg/g-fresh weight | Relative absorbance ([2]; in the dark, 1 ppm): 0.82 | Relative absorbance ([2]; in the dark, 10 ppm): 0.81 | Relative absorbance ([2]; in the light, 1 ppm): 0.42 | Relative absorbance ([2]; in the light, 10 ppm): 0.23 | Relative absorbance ([3]; in the dark, 1 ppm): 0.95 | Relative absorbance ([3]; in the dark, 10 ppm): 0.94 | Relative absorbance ([3]; in the light, 1 ppm): 1.0 | Relative absorbance ([3]; in the light, 10 ppm): 0.48
